The values that follow come from ChEMBL document CHEMBL1201862, “PubChem BioAssay data set” (2004).

Common to all, as to experiment: growth of human tumour cells (NCI), 48 h
Assay [1] deals with ACHN.
Assay [2] has as its system BT-549.
Assay [3] has as its system CCRF-CEM.
Assay [4] has as its system COLO 205.
For assay [5], the system named is EKVX.
Assay [6] relates to HCT-116.
Assay [7] has as its system HCT-15.
Assay [8] has as its system K562.
Assay [9] relates to MCF7.
Assay [10] deals with MDA-MB-435.
The subject of assay [11] is MOLT-4.
For assay [12], the system named is NCI-H23.
For assay [13], the system named is NCI-H522.
For assay [14], the system named is PC-3.
For assay [15], the system named is RPMI-8226.
For assay [16], the system named is SF-295.
In assay [17] the test system is SK-MEL-5.
Assay [18] deals with SK-OV-3.
Assay [19] has as its system SNB-75.
The subject of assay [20] is T47D.

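In this assay, cells in 96-well plates receive the compound at five concentrations for 48 hours. Endpoints are linearly interpolated between the surrounding concentrations. Abbreviation: GI50, concentration required for 50% inhibition of growth.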 Activity calls are given as the source filed them. Cut-off read from the data, not from the text of the source: active = GI50 up to about 1.1 µM and inactive = higher.

As to `N#C/C(=C(\O)C(=O)O)c1ccc(-c2cccc3ccccc23)cc1`, the GI50 was > 100 µM (inactive) in assay [1]; > 100 µM (inactive) in [2]; 14.1 µM (inactive) in [3]; > 100 µM (inactive) in assay [4]; 59.4 µM (inactive) in assay [5]; > 100 µM (inactive) in assay [6]. For the same compound, the GI50 in assay [7] is more than 100 µM; in assay [8] it was 2.65 µM (inactive); in assay [9] it was > 100 µM (inactive); in assay [10], > 100 µM (inactive); in assay [11], 1.51 µM (inactive); in assay [12] it was > 100 µM (inactive). The GI50 in assay [13] was > 100 µM (inactive); in assay [14], > 100 µM (inactive); in assay [15], 29 µM (inactive); in [16], > 100 µM (inactive); in assay [17] it was > 100 µM (inactive); in assay [18] it was > 100 µM (inactive). In addition, the GI50 in assay [19] and in assay [20] was > 100 µM (inactive) throughout.
Take `Cn1c(N)c(/N=N/c2ccc(S(N)(=O)=O)cc2)c(=O)n(C)c1=O`: the GI50 was 96.8 µM (inactive) in [1]; > 100 µM (inactive) in assay [2]; > 100 µM (inactive) in assay [3]; > 100 µM (inactive) in [4]; > 100 µM (inactive) in assay [5]; > 100 µM (inactive) in assay [6]. The GI50 in assay [7] was more than 100 µM; in assay [8], > 100 µM (inactive); in assay [9] it was > 100 µM (inactive); in [10], > 100 µM (inactive); in assay [11], > 100 µM (inactive); in assay [12], > 100 µM (inactive). The GI50 in [13] was 80.9 µM (inactive); in assay [14], > 100 µM (inactive); in [15] it was > 100 µM (inactive); in [16] it was > 100 µM (inactive); in assay [17], > 100 µM (inactive); in assay [18], 79.8 µM (inactive). Also, the GI50 in assay [19] is 22.6 µM (inactive); in assay [20], > 100 µM (inactive).
As for `OC1[C@@H]2[C@@H](O)CCCN2C[C@@H](O)[C@H]1O` (stereo not given in full), the GI50 in assay [1], in assay [2], in assay [3], in assay [4], in assay [5] and in [6] was > 100 µM (inactive) each time. Besides, the GI50 is more than 100 µM in [7]; > 100 µM (inactive) in assay [8]; > 100 µM (inactive) in assay [9]; > 100 µM (inactive) in assay [10]; > 100 µM (inactive) in assay [11]; > 100 µM (inactive) in [12]. The GI50 in assay [13] was 19.5 µM (inactive); in assay [14], > 100 µM (inactive); in [15] it was > 100 µM (inactive); in [16], > 100 µM (inactive); in assay [17] it was > 100 µM (inactive); in assay [18] it was > 100 µM (inactive). In addition, the GI50 in [19] and in assay [20] was > 100 µM (inactive) each time.
Turning to `C[C@]12CC[C@@H]3c4ccc(O)cc4CC[C@H]3[C@@H]1C/C(=C\c1ccc(C#N)cc1)C2=O`, the GI50 in assay [1] is 64 µM (inactive); in assay [2], 48.2 µM (inactive); in assay [3] it was 34.4 µM (inactive); in assay [4], 37.2 µM (inactive); in assay [5], 34.8 µM (inactive); in [6], 32.9 µM (inactive). In addition, the GI50 in [7] is 71.8 µM; in assay [8], > 100 µM (inactive); in [9] it was 45.5 µM (inactive); in [10], 19.4 µM (inactive); in assay [11] it was 23.5 µM (inactive); in assay [12] it was 38.2 µM (inactive). Besides, the GI50 in assay [13] is 17.4 µM (inactive); in assay [14], 18.6 µM (inactive); in assay [15], 13.3 µM (inactive); in assay [16], 71.6 µM (inactive); in assay [17], 19.2 µM (inactive); in [18], 57 µM (inactive). Further, the GI50 in assay [19] was 94 µM (inactive); in assay [20], 46.8 µM (inactive).
On to `C=C[C@]1(C)CC(=O)C(C(C)C=O)[C@]12C(=O)Oc1cccc(C)c1C2=O` (stereo not given in full), for which the GI50 was 15.6 µM (inactive) in [1]; 14.3 µM (inactive) in assay [2]; 2.26 µM (inactive) in assay [3]; 17.3 µM (inactive) in [4]; 19.4 µM (inactive) in [5]; 7.85 µM (inactive) in assay [6]. The GI50 is 14.9 µM in assay [7]; 12.9 µM (inactive) in assay [8]; 16.5 µM (inactive) in assay [9]; 15.2 µM (inactive) in [10]; 23.9 µM (inactive) in assay [11]; 17.1 µM (inactive) in assay [12]. The GI50 was 3.72 µM (inactive) in [13]; 13.3 µM (inactive) in [14]; 8.22 µM (inactive) in [15]; 15.5 µM (inactive) in assay [16]; 13.2 µM (inactive) in assay [17]; 16.6 µM (inactive) in assay [18]. In addition, the GI50 in assay [19] and in assay [20] was 16.4 µM (inactive) in each case.
Take `COC(=O)c1ccc(CCC2=CC(=O)C(Br)=CC2=O)cc1`: the GI50 was 12.6 µM (inactive) in [1]; 11.6 µM (inactive) in [2]; 0.615 µM (active) in assay [3]; 6.78 µM (inactive) in assay [4]; 19 µM (inactive) in [5]; 16 µM (inactive) in assay [6]. In addition, the GI50 in [7] was 14.5 µM; in assay [8], 2.21 µM (inactive); in assay [9] it was 16.5 µM (inactive); in assay [10], 16.1 µM (inactive); in assay [11], 2.47 µM (inactive); in assay [12], 15.1 µM (inactive). The GI50 in assay [13] is 2.68 µM (inactive); in assay [14], 16.9 µM (inactive); in assay [15], 10.2 µM (inactive); in [16], 19.5 µM (inactive); in assay [17], 12.1 µM (inactive); in assay [18], 17.8 µM (inactive). Further, the GI50 in assay [19] is 14 µM (inactive); in [20], 21.5 µM (inactive).
On to `COC(=O)c1ccc(NCc2cc(O)ccc2O)cc1`, for which the GI50 in assay [1] is 10.2 µM (inactive); in [2], 1.04 µM (active); in [3] it was 1.51 µM (inactive); in [4], 12.6 µM (inactive); in [5] it was 15.6 µM (inactive); in assay [6] it was 17.4 µM (inactive). In addition, the GI50 in assay [7] was 10.2 µM; in assay [8], 4 µM (inactive); in assay [9] it was 6.21 µM (inactive); in [10] it was 4.63 µM (inactive); in assay [11] it was 3.19 µM (inactive); in assay [12], 15.4 µM (inactive). In addition, the GI50 in [13] was 0.841 µM (active); in assay [14], 4.39 µM (inactive); in [15], 1.69 µM (inactive); in [16], 18.2 µM (inactive); in [17], 9.71 µM (inactive); in assay [18] it was 14 µM (inactive). The GI50 in [19] was 15.3 µM (inactive); in assay [20], 1.65 µM (inactive).
`COc1ccc(S(=O)(=O)NC(CCC(=O)NC(N)=O)C(=O)NC(N)=O)cc1` (stereo not given): the GI50 in [1], in assay [2], in assay [3], in assay [4], in [5] and in [6] was > 100 µM (inactive) throughout. Moreover, the GI50 was more than 100 µM in assay [7]; > 100 µM (inactive) in assay [8]; > 100 µM (inactive) in [9]; > 100 µM (inactive) in assay [10]; > 100 µM (inactive) in [11]; > 100 µM (inactive) in [12]. Besides, the GI50 in assay [13], in [14], in assay [15], in assay [16], in [17] and in [18] was > 100 µM (inactive) throughout. Further, the GI50 in assay [19] and in [20] was > 100 µM (inactive) throughout.
Turning to `COC(=O)c1cc2ccc(O)c(O)c2cn1`, the GI50 in assay [1] was 19.1 µM (inactive); in assay [2], > 10 µM (inactive); in [3], 1.92 µM (inactive); in assay [4], 18.9 µM (inactive); in [5], 21.4 µM (inactive); in assay [6], 15.7 µM (inactive). In addition, the GI50 in [7] was 20.3 µM; in assay [8] it was 2.42 µM (inactive); in assay [9] it was 3.56 µM (inactive); in assay [10], 1.73 µM (inactive); in assay [11], 3.44 µM (inactive); in assay [12] it was 15.7 µM (inactive). Besides, the GI50 in assay [13] is 21.6 µM (inactive); in assay [14], 24.9 µM (inactive); in [15] it was 17.1 µM (inactive); in [16] it was 18.2 µM (inactive); in assay [17], 14.2 µM (inactive); in assay [18] it was 27.5 µM (inactive). Besides, the GI50 in assay [19] was 21.5 µM (inactive); in [20], > 10 µM (inactive).
As for `CCN1CSC(=S)N(CC)C1`, the GI50 in assay [1] is > 100 µM (inactive); in assay [2], > 100 µM (inactive); in [3], 71.6 µM (inactive); in assay [4], 54.8 µM (inactive); in [5], > 100 µM (inactive); in assay [6], 41.3 µM (inactive). The GI50 in assay [7] was 73.3 µM; in assay [8], > 100 µM (inactive); in [9] it was 41 µM (inactive); in assay [10], 46.8 µM (inactive); in assay [11], 34.4 µM (inactive); in [12], 48.3 µM (inactive). Also, the GI50 in [13] was 22.6 µM (inactive); in [14], > 100 µM (inactive); in [15] it was 50.9 µM (inactive); in assay [16], > 100 µM (inactive); in [17] it was 76.9 µM (inactive); in assay [18], > 100 µM (inactive). Also, the values for the GI50 in [19] and in assay [20] were 44.2 µM (inactive) and > 100 µM (inactive), respectively.
